In patent US20240207236A1, “COMPOUND FOR PREVENTING OR TREATING DIABETES” (ONCOCROSS CO., LTD., priority 2021, published 2024):

Legend:
Assay type in all cases: in vivo, mice (C57BL/6)
[1] = Body weight of mice in STZ-induced insulin-resistant diabetes model
Description: (§1) STZ (Sigma-aldrich, S0130, 40 mg/kg b.w., in 0.1 M citrate buffer pH 4.5) was intraperitoneally administered to 9-week-old male mice (C57BL/6) once/1 day for 5 days to perform a first disease induction. After 7 weeks of the first induction, a second induction was performed using the same method as the first induction. For 5 days of an STZ administration period for the first induction, 10% sucrose was administered as drinking water. In addition, after 14 days of the second administration, blood sugar was confirmed to confirm the induction rate, and the induced animals were separated into groups. Experimental substances (R)-4-{(R)-1-[7-(3,4,5-trimethoxy-phenyl)-[1,6] naphthyridine-5-yloxy]-ethyl}pyrrolidine-2-one (BI-1002494) and cromolyn (OC-101) were administered orally into the stomach at 10 mL/kg using an oral administration syringe (sonde) before 16:00 daily for 12 weeks at a frequency of 7 days/week at doses shown in Table 1 below, respectively, and dexamethasone was orally administered as a positive control substance.

[2] = Drinking water intake of mice in STZ-induced insulin-resistant diabetes model; parameters: unit not given here
Description: as §1

[3] = test system: animal model of insulin-resistant diabetes; assay: Blood sugar, tail vein blood, blood sugar meter, 4 h fasting; parameters: blood sugar, Mean: unit not given here
Description: as §1
Before disease induction, excluding week 9 of administration of experimental substances to mice in each group of Example 1 above, after 2 weeks after the first induction (based on a first administration date), and after 6 weeks and 2 weeks of the second induction (based on the first administration date), blood was collected from the tail vein and blood sugar was measured using a blood sugar meter (Accu-Check, Roche), and fasting was performed for 4 hours from 9:30 a.m. to 1:30 p.m.

[4] = test system: animal model of insulin-resistant diabetes; assay: Blood biochemistry, automated analyzer, at end of observation
Description: as §1
(§2) After the observation period for mice of each group in Example 1 was terminated, all surviving animals were fasted in the same manner as when measuring blood sugar, and then anesthetized by inhaling isoflurane, and blood was collected from the abdominal vena cava through laparotomy. After the blood collection was completed, the veins and arteries were cut under anesthesia and exsanguinated. The collected blood was left at room temperature for 30 minutes or more and then centrifuged at 3,000 rpm for 20 minutes. Thereafter, glucose, blood urea nitrogen (BUN), and creatinine were analyzed using an automated blood biochemistry analyzer (Hitachi 3100, Hitachi Co. Ltd., Japan). Indoxyl sulfate (a substance that was mainly produced in the intestines to cause kidney damage, and a substance that caused end-stage renal failure by advancing kidney function damage in patients with renal failure during hemodialysis) was analyzed using LC MS/MS. In addition, blood insulin was analyzed according to a method represented by a commercial Mouse Insulin ELISA KIT (#AKRIN-011T, Sibayagi Co. Ltd., Japan).

[5] = test system: animal model of insulin-resistant diabetes; assay: Histopathological change of liver, kidney and pancreas (H&E); conditions: count in group of 10 animals
Description: as §1
At the end of the observation period, the mice in each group of Example 1 were confirmed to be dead, and the liver, kidney, and pancreas were extracted and fixed with 10% neutral buffered formalin (NBF) in at least 20 times the tissue volume. The fixed tissue was sectioned to a thickness of approximately 4 mm and then produced into a paraffin block through general tissue processing and embedding processes. Thereafter, the tissue was sectioned to a thickness of 4 μm using a rotary microtome, and then H&E staining was performed, and histopathological changes were observed.

[6] = Feed intake of mice in STZ-induced insulin-resistant diabetes model; parameters: feed intake: unit not given here; conditions: 50 mg/kg/day oral
Description: as §1

[7] = test system: animal model of insulin-resistant diabetes; assay: Blood insulin (Mouse Insulin ELISA) and HOMA-IR; conditions: 50 mg/kg
Description: as §1, §2

[8] = test system: animal model of insulin-resistant diabetes; assay: Blood indoxyl sulfate by LC MS/MS; conditions: 50 mg/kg/day oral, 12 weeks
Description: as §1, §2

[9] = 50 mg/kg/day oral, 12 weeks, blood

SMILES: C[C@@H]1C[C@H]2[C@@H]3CCC4=CC(=O)C=C[C@]4(C)[C@@]3(F)[C@@H](O)C[C@]2(C)[C@@]1(O)C(=O)CO [Dexamethasone, reference compound]
- body weight, Mean ([1]; 2 mg/kg/day oral, week 0): 24 g
- body weight, Mean ([1]; 2 mg/kg/day oral, week 1): 23.5 g
- body weight, Mean ([1]; 2 mg/kg/day oral, week 2): 23.6 g
- body weight, Mean ([1]; 2 mg/kg/day oral, week 3): 23.6 g
- body weight, Mean ([1]; 2 mg/kg/day oral, week 4): 23.6 g
- body weight, Mean ([1]; 2 mg/kg/day oral, week 5): 23.7 g
- body weight, Mean ([1]; 2 mg/kg/day oral, week 6): 23.6 g
- body weight, Mean ([1]; 2 mg/kg/day oral, week 7): 23.8 g
- body weight, Mean ([1]; 2 mg/kg/day oral, week 9): 23.3 g
- drinking water intake, Mean ([2]; 2 mg/kg/day oral, week 0): 7.07
- drinking water intake, Mean ([2]; 2 mg/kg/day oral, week 1): 7.73
- drinking water intake, Mean ([2]; 2 mg/kg/day oral, week 2): 7.05
- drinking water intake, Mean ([2]; 2 mg/kg/day oral, week 3): 7.89
- drinking water intake, Mean ([2]; 2 mg/kg/day oral, week 4): 7.69
- drinking water intake, Mean ([2]; 2 mg/kg/day oral, week 5): 7.10
- drinking water intake, Mean ([2]; 2 mg/kg/day oral, week 6): 7.35
- drinking water intake, Mean ([2]; 2 mg/kg/day oral, week 7): 7.18
- drinking water intake, Mean ([2]; 2 mg/kg/day oral, week 8): 7.83
- drinking water intake, Mean ([2]; 2 mg/kg/day oral, week 9): 7.45
- drinking water intake, Mean ([2]; 2 mg/kg/day oral, week 10): 7.19
- blood sugar, Mean ([3]; 2 mg/kg/day oral, value column 2 of 6, head prints only weeks 0, 4, 8, 10): 309.1
- blood sugar, Mean ([3]; 2 mg/kg/day oral, value column 3 of 6, head prints only weeks 0, 4, 8, 10): 329.2
- blood sugar, Mean ([3]; 2 mg/kg/day oral, value column 4 of 6, head prints only weeks 0, 4, 8, 10): 336.9
- blood sugar, Mean ([3]; 2 mg/kg/day oral, value column 6 of 6, head prints only weeks 0, 4, 8, 10): 331.4
- blood sugar, Mean ([3]; 2 mg/kg/day oral, week 0): 307.1
- T-CHO, Mean ([4]; 2 mg/kg/day oral, 12 weeks, blood): 139.0 dL⁻¹
- Kidney Medullar apoptosis ([5]; 2 mg/kg (G3)): 1
- Kidney Medullar mineralization ([5]; 2 mg/kg (G3)): 2
- Kidney NHL ([5]; 2 mg/kg (G3)): 6
- Kidney bowman's capsule hyperplasia ([5]; 2 mg/kg (G3)): 2
- Kidney pappillary mineralization ([5]; 2 mg/kg (G3)): 0
- Liver Apoptosis ([5]; 2 mg/kg (G3)): 4
- Liver Cytoplasmic glycogen ([5]; 2 mg/kg (G3)): 0
- Liver Eosinophlic focus of cellular alteration ([5]; 2 mg/kg (G3)): 3
- Liver Mononuclear cell infiltrate ([5]; 2 mg/kg (G3)): 0
- Liver NHL ([5]; 2 mg/kg (G3)): 5
- Pancrease Apoptosis ([5]; 2 mg/kg (G3)): 0
- Pancrease NHL ([5]; 2 mg/kg (G3)): 8
- Pancrease islet degeneration ([5]; 2 mg/kg (G3)): 1
- Pancrease islet hypertrophy ([5]; 2 mg/kg (G3)): 0
- Pancrease islet, mononuclear cell infillitrate ([5]; 2 mg/kg (G3)): 1

SMILES: O=C(O)c1cc(=O)c2c(OCC(O)COc3cccc4oc(C(=O)O)cc(=O)c34)cccc2o1 [OC-101, cromolyn, reference compound]
- body weight, Mean ([1]; 50 mg/kg/day oral, week 0): 23.9 g
- body weight, Mean ([1]; 50 mg/kg/day oral, week 1): 23.4 g
- body weight, Mean ([1]; 50 mg/kg/day oral, week 2): 23.5 g
- body weight, Mean ([1]; 50 mg/kg/day oral, week 3): 23.3 g
- body weight, Mean ([1]; 50 mg/kg/day oral, week 4): 23.5 g
- body weight, Mean ([1]; 50 mg/kg/day oral, week 5): 23.4 g
- body weight, Mean ([1]; 50 mg/kg/day oral, week 6): 23.5 g
- body weight, Mean ([1]; 50 mg/kg/day oral, week 7): 23.4 g
- body weight, Mean ([1]; 50 mg/kg/day oral, week 8): 23.2 g
- body weight, Mean ([1]; 50 mg/kg/day oral, week 9): 23 g
- feed intake ([6]; week 3): 5.47
- feed intake ([6]; week 4): 4.26
- feed intake ([6]; week 6): 4.29
- feed intake ([6]; week 9): 4.51
- drinking water intake, Mean ([2]; 50 mg/kg/day oral, week 0): 6.78
- drinking water intake, Mean ([2]; 50 mg/kg/day oral, week 1): 6.11
- drinking water intake, Mean ([2]; 50 mg/kg/day oral, week 2): 7.68
- drinking water intake, Mean ([2]; 50 mg/kg/day oral, week 3): 6.99
- drinking water intake, Mean ([2]; 50 mg/kg/day oral, week 4): 7.23
- drinking water intake, Mean ([2]; 50 mg/kg/day oral, week 5): 6.76
- drinking water intake, Mean ([2]; 50 mg/kg/day oral, week 6): 7.60
- drinking water intake, Mean ([2]; 50 mg/kg/day oral, week 7): 7.06
- drinking water intake, Mean ([2]; 50 mg/kg/day oral, week 8): 7.17
- drinking water intake, Mean ([2]; 50 mg/kg/day oral, week 9): 7.09
- drinking water intake, Mean ([2]; 50 mg/kg/day oral, week 10): 6.76
- blood sugar, Mean ([3]; 50 mg/kg/day oral, value column 2 of 6, head prints only weeks 0, 4, 8, 10): 336.8
- blood sugar, Mean ([3]; 50 mg/kg/day oral, week 0): 200.9
- GLU compared to the disease control group ([4]; 50 mg/kg): decreased statistically significantly
- ALT, Mean [4, 9]: 31.3 L⁻¹
- AST, Mean [4, 9]: 34.0 L⁻¹
- T-CHO, Mean [4, 9]: 24.2 dL⁻¹
- HOMA-IR compared with the disease control group [7]: decreased statistically significantly
- Indoxyl sulfate, Mean [8]: 0.8 µg/mL
- Kidney Medullar apoptosis ([5]; 50 mg/kg (G6, G7)): 0
- Kidney Medullar mineralization ([5]; 50 mg/kg (G6, G7)): 1
- Kidney NHL ([5]; 50 mg/kg (G6, G7)): 8
- Kidney bowman's capsule hyperplasia ([5]; 50 mg/kg (G6, G7)): 1
- Kidney pappillary mineralization ([5]; 50 mg/kg (G6, G7)): 0
- Liver Apoptosis ([5]; 50 mg/kg (G6, G7)): 2
- Liver Cytoplasmic glycogen ([5]; 50 mg/kg (G6, G7)): 0
- Liver Eosinophlic focus of cellular alteration ([5]; 50 mg/kg (G6, G7)): 1
- Liver Mononuclear cell infiltrate ([5]; 50 mg/kg (G6, G7)): 3
- Liver NHL ([5]; 50 mg/kg (G6, G7)): 5
- Pancrease Apoptosis ([5]; 50 mg/kg (G6, G7)): 0
- Pancrease NHL ([5]; 50 mg/kg (G6, G7)): 6
- Pancrease islet degeneration ([5]; 50 mg/kg (G6, G7)): 2
- Pancrease islet hypertrophy ([5]; 50 mg/kg (G6, G7)): 2
- Pancrease islet, mononuclear cell infillitrate ([5]; 50 mg/kg (G6, G7)): 1
